Laboratory results published in PMC10607377, “The PKG Inhibitor CN238 Affords Functional Protection of Photoreceptors and Ganglion Cells against Retinal Degeneration” (International Journal of Molecular Sciences, 2023).

What was measured:
cone CNG channel (CNGA3) = molecular target: T1, cone CNG channel (CNGA3) (Homo sapiens, UniProt Q16281+Q9NQW8); assay: inside-out patch-clamp, concentration-activation; assay type: cell-based
T1 construct: CNGA3:CNGB3 expressed in Xenopus oocytes; with CNGB3
T1 sequence (Q16281 1-694): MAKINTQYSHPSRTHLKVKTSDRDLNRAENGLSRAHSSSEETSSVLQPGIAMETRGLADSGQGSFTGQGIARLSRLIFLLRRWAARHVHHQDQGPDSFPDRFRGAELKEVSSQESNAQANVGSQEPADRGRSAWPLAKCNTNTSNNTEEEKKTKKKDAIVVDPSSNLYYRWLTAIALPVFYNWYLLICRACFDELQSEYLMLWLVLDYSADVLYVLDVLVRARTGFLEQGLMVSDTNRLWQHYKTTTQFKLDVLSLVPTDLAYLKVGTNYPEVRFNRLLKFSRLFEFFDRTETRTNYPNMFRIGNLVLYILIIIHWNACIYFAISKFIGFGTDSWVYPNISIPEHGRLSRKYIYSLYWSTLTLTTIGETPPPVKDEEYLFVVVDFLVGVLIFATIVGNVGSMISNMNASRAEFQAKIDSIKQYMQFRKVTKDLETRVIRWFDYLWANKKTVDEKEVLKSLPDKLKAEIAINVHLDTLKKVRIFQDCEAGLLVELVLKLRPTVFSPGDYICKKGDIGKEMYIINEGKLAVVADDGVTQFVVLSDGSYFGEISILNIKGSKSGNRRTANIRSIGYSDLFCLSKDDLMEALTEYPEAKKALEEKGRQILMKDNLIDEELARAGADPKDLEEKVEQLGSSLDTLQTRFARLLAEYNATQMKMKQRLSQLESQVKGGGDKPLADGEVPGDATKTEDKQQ
T1 sequence (Q9NQW8 1-809): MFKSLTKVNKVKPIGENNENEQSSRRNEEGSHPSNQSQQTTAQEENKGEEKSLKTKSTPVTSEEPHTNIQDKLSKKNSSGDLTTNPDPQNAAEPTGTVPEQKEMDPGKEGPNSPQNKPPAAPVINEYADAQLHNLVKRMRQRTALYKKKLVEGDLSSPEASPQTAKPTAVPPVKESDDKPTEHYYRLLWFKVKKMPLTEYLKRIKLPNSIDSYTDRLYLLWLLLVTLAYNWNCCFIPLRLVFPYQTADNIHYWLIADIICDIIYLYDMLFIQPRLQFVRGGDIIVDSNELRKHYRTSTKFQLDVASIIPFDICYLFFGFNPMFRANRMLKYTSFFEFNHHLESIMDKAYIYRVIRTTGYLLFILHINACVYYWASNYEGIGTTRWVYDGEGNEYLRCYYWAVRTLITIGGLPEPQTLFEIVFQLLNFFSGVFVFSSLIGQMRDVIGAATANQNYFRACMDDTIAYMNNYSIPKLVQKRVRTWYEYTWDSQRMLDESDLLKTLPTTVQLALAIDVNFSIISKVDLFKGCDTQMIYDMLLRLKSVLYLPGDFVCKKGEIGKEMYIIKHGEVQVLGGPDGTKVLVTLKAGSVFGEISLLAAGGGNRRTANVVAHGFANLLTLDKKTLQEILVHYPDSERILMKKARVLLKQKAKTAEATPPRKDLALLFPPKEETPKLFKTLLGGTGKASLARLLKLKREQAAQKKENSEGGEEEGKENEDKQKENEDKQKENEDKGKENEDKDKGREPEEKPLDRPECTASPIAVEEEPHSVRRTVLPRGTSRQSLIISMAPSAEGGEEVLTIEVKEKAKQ

PKG2 = molecular target: T2, PKG2 (Homo sapiens, UniProt Q13237); assay: coupled spectrophotometric kinase activation assay; assay type: biochemical
T2 construct: gene PRKG2; FLAG-Strep-Strep-tagged human PKG2 (1–762) WT
T2 sequence (Q13237 1-762): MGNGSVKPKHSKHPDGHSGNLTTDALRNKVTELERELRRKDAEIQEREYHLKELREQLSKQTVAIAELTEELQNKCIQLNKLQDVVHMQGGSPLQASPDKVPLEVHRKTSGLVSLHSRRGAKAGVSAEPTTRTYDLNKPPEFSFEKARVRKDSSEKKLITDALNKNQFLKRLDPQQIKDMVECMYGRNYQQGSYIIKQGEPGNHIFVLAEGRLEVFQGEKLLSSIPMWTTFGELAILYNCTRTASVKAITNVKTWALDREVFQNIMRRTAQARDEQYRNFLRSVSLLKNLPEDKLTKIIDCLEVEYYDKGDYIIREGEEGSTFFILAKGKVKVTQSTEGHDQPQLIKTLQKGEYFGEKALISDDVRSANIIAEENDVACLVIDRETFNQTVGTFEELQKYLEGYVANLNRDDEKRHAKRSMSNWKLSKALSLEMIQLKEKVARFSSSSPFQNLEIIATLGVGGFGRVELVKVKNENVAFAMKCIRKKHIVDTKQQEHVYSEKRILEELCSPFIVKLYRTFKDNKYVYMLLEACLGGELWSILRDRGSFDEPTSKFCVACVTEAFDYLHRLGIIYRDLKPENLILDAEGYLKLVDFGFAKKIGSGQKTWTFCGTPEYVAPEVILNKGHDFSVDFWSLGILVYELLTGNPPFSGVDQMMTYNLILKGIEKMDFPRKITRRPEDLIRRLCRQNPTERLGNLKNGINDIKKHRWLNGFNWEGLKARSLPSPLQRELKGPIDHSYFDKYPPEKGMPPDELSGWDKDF

PKG1β = molecular target: T3, PKG1β (Homo sapiens, UniProt Q13976)
T3 construct: gene PRKG1
T3 sequence (Q13976 4-686 isoform Q13976-2): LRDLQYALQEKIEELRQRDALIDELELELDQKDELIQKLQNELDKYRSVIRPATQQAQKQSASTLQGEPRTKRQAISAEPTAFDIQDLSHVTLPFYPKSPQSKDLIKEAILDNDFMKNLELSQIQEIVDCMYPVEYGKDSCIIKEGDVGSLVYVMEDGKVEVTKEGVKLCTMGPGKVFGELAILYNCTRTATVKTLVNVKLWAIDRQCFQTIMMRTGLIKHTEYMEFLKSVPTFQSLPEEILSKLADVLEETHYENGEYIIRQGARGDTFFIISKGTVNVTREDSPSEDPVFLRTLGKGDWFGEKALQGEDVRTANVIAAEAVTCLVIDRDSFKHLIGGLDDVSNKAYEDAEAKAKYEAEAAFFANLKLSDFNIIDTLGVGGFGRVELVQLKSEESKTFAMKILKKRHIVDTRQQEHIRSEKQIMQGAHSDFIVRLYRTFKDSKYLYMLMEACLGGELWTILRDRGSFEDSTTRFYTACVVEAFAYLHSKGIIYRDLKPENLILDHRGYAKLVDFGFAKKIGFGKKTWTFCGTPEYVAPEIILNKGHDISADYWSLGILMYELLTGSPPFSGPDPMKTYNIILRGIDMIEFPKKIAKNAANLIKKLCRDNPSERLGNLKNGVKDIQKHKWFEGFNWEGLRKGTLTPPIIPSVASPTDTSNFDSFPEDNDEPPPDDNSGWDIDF

Compound: Nc1nc2c(ncn2[C@@H]2O[C@@H]3COP(=O)(O)O[C@H]3[C@H]2O)c(=O)[nH]1 [cGMP]
- EC50 (cone CNG channel (CNGA3)): 10.7 µM
- coupled spectrophotometric kinase activation assay (PKG2): Activation with cGMP was determined for all PKG isoforms
- coupled spectrophotometric kinase activation assay (PKG1β): Activation with cGMP was determined for all PKG isoforms
